Laboratory results from publication PMC10329608, “Investigation of the structure-activity relationship at the N-terminal part of minigastrin analogs” (EJNMMI Research, 2023).
“Also recorded” adds a separate entry of the source. Where two headings read alike, the source gives them in different places. Starred links: 1 amine or outer side, 2 acyl side, 3 side chain; linkers in the order of their positions; H or OH if unused. Non-standard residues stand in square brackets, D forms with d. Residues, ends and D or L forms follow the SMILES beside them. *: point of attachment. DOTA = O=C(O)CN1CCN(CC(=O)O)CCN(CC(=O)*)CCN(CC(=O)O)CC1; d(γGlu) = O=C(O)[C@@H](CCC(=O)[*:2])N[*:1]; 1Nal = N[C@@H](Cc1cccc2ccccc12)C(=O)O; 2Nal = N[C@@H](Cc1ccc2ccccc2c1)C(=O)O; PEG5 = NCCOCCOCCOCCOCCOCCC(=O)O; NMeNle = CCCC[C@H](NC)C(=O)O; PEG4 = NCCOCCOCCOCCOCCC(=O)O; Nle = CCCC[C@H](N)C(=O)O

Columns and labels:
CCK-2R = target: T1, CCK-2R (Rattus norvegicus, UniProt P30553); assay: Competitive binding (IC50) on AR42J cells against [177Lu]Lu-DOTA-PP-F11N; settings: for IC50 / CCK-2R affinity (in words): AR42J cells; for IC50: 3 h; for fold elevated IC50 value versus N-methylated tetrapeptides: B1 versus B3, B5 and B7 versus B3, B4 and B6; for CCK-2R affinity (in words): tetrapeptides
T1 construct: endogenous in cells; host or cells: AR42J cells
T1 sequence (P30553 1-452): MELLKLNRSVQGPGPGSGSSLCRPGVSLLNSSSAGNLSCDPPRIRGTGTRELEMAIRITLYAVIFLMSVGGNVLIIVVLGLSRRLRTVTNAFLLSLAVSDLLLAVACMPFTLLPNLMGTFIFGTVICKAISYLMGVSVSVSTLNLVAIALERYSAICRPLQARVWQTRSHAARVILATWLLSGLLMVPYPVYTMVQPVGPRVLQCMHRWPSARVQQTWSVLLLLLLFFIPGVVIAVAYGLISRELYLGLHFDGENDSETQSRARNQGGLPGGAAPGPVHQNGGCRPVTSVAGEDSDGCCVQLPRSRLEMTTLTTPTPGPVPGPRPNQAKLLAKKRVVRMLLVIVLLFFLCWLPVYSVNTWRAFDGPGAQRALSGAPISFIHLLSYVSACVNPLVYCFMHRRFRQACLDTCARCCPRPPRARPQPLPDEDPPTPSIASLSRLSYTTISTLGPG
Protocol: IC50 values of all compounds were determined according to a previously published procedure. In brief, competitive binding studies were performed via co-incubation of increasing concentrations of the peptide of interest (10^−10 to 10^–4 M, in triplicate) together with the reference compound [^177Lu]Lu-DOTA-PP-F11N (0.3 pmol/well) on AR42J cells (2 × 10^5 cells per 1 mL/well) at 37 °C for 3 h. Table S1. CCK-2R affinity and lipophilicity data of the compounds evaluated. Affinity data were determined on AR42J cells (2.0 x 10^5 cells/well/mL) and [^177Lu]Lu-DOTA-PP-F11N (0.3 pmol/well) as radiolabeled reference (3 h, 37°C, RPMI 1640, 5 mM L-Gln, 5 mL non-essential amino acids (100x), 10% FCS + 5% BSA (v/v)).

[1] = type: physicochemical; settings: pH 7.4
Protocol: Lipophilicity (depicted as n-octanol-phosphate-buffered saline solution (PBS, pH = 7.4) distribution coefficient, logD7.4) of ^177Lu-labeled minigastrin analogs was evaluated as previously published.

[2] = 2.0 x 10^5 cells/well/mL, [177Lu]Lu-DOTA-PP-F11N 0.3 pmol/well as reference, 37°C, natLu-labeled DOTA peptides, tetrapeptides unlabeled, read-out: IC50
[3] = [177Lu]Lu-DOTA-PP-F11N as reference, 37 °C, values in text, read-out: IC50 (CCK-2R affinity)

| Structure (SMILES) | logD [1] | logD7.4 [1] | other results |
| --- | --- | --- | --- |
| CCCC[C@H](NC(=O)[C@@H](N)Cc1c[nH]c2ccccc12)C(=O)N[C@@H](CC(=O)O)C(=O)N[C@@H](Cc1cccc2ccccc12)C(N)=O [B1, H-Trp-Nle-Asp-1-Nal-NH2] (H-W[Nle]D[1Nal]-NH2) | – | – | IC50 (CCK-2R; [2]): 297 ± 15 nM; fold elevated IC50 value versus N-methylated tetrapeptides (CCK-2R): 50 fold; CCK-2R affinity (in words) (CCK-2R): significant loss in CCK-2R affinity; also recorded: low CCK-2R affinity |
| CCCC[C@H](NC(=O)[C@@H](N)Cc1c[nH]c2ccccc12)C(=O)N[C@@H](CC(=O)O)C(=O)N[C@@H](Cc1ccccc1)C(N)=O [B2, H-Trp-Nle-Asp-Phe-NH2] (H-W[Nle]DF-NH2) | – | – | IC50 (CCK-2R; [2]): 466 ± 88 nM; CCK-2R affinity (in words) (CCK-2R): significant loss in CCK-2R affinity; CCK-2R affinity (in words) (CCK-2R; listed as H-Trp-Nle-Asp-Phe-NH2): noticeably decreased CCK-2R affinity |
| CCCC[C@@H](C(=O)N[C@@H](CC(=O)O)C(=O)N[C@@H](Cc1cccc2ccccc12)C(N)=O)N(C)C(=O)[C@@H](N)Cc1c[nH]c2ccccc12 [B3, H-Trp-(N-Me)Nle-Asp-1-Nal-NH2] (H-W[NMeNle]D[1Nal]-NH2) | – | – | CCK-2R affinity (in words) (CCK-2R): CCK-2R affinities in the low nanomolar range |
| CCCC[C@@H](C(=O)N[C@@H](CC(=O)O)C(=O)N[C@@H](Cc1ccccc1)C(N)=O)N(C)C(=O)[C@@H](N)Cc1c[nH]c2ccccc12 [B4, H-Trp-(N-Me)Nle-Asp-Phe-NH2] (H-W[NMeNle]DF-NH2) | – | – | CCK-2R affinity (in words) (CCK-2R): CCK-2R affinities in the low nanomolar range |
| CCCC[C@@H](C(=O)N[C@@H](CC(=O)O)C(=O)N[C@@H](Cc1ccc2ccccc2c1)C(N)=O)N(C)C(=O)[C@@H](N)Cc1c[nH]c2ccccc12 [B5, H-Trp-(N-Me)Nle-Asp-2-Nal-NH2] (H-W[NMeNle]D[2Nal]-NH2) | – | – | fold elevated IC50 value versus N-methylated tetrapeptides (CCK-2R): 3.5- to 19 fold |
| CCCC[C@@H](C(=O)N[C@@H](CC(=O)O)C(=O)N[C@@H](Cc1ccc(O)cc1)C(N)=O)N(C)C(=O)[C@@H](N)Cc1c[nH]c2ccccc12 [B6, H-Trp-(N-Me)Nle-Asp-Tyr-NH2] (H-W[NMeNle]DY-NH2) | – | – | CCK-2R affinity (in words) (CCK-2R): CCK-2R affinities in the low nanomolar range |
| CCCC[C@@H](C(=O)N[C@@H](CC(=O)O)C(=O)N[C@@H](Cc1c[nH]c2ccccc12)C(N)=O)N(C)C(=O)[C@@H](N)Cc1c[nH]c2ccccc12 [B7, H-Trp-(N-Me)Nle-Asp-Trp-NH2] (H-W[NMeNle]DW-NH2) | – | – | fold elevated IC50 value versus N-methylated tetrapeptides (CCK-2R): 3.5- to 19 fold |
| CCCC[C@@H](C(=O)N[C@@H](CC(=O)O)C(=O)N[C@@H](Cc1cccc2ccccc12)C(N)=O)N(C)C(=O)[C@H](Cc1c[nH]c2ccccc12)NC(=O)CNC(=O)CNC(=O)CNC(=O)CNC(=O)CN1CCN(CC(=O)O)CCN(CC(=O)O)CCN(CC(=O)O)CC1 [[^nat/177Lu]Lu-DOTA-CCK-55, metal not drawn] ({DOTA}-GGGGW[NMeNle]D[1Nal]-NH2) | -2.09 ± 0.07 | ‒2.7 to ‒2.1 | – |
| CCCC[C@@H](C(=O)N[C@@H](CC(=O)O)C(=O)N[C@@H](Cc1cccc2ccccc12)C(N)=O)N(C)C(=O)[C@H](Cc1c[nH]c2ccccc12)NC(=O)CNC(=O)[C@H](Cc1ccc(O)cc1)NC(=O)CNC(=O)CNC(=O)CN1CCN(CC(=O)O)CCN(CC(=O)O)CCN(CC(=O)O)CC1 [[^nat/177Lu]Lu-DOTA-CCK-56, metal not drawn] ({DOTA}-GGYGW[NMeNle]D[1Nal]-NH2) | -1.38 ± 0.07 | − 1.9 to − 1.2 | – |
| CCCC[C@@H](C(=O)N[C@@H](CC(=O)O)C(=O)N[C@@H](Cc1cccc2ccccc12)C(N)=O)N(C)C(=O)[C@H](Cc1c[nH]c2ccccc12)NC(=O)CNC(=O)CNC(=O)[C@H](C)NC(=O)CNC(=O)CN1CCN(CC(=O)O)CCN(CC(=O)O)CCN(CC(=O)O)CC1 [[^nat/177Lu]Lu-DOTA-CCK-57, metal not drawn] ({DOTA}-GAGGW[NMeNle]D[1Nal]-NH2) | -1.94 ± 0.06 | − 1.9 to − 1.2 | IC50 (CCK-2R; [2]): 9.67 ± 1.74 nM |
| CCCC[C@@H](C(=O)N[C@@H](CC(=O)O)C(=O)N[C@@H](Cc1cccc2ccccc12)C(N)=O)N(C)C(=O)[C@H](Cc1c[nH]c2ccccc12)NC(=O)CNC(=O)CNC(=O)CNC(=O)CC[C@@H](NC(=O)CN1CCN(CC(=O)O)CCN(CC(=O)O)CCN(CC(=O)O)CC1)C(=O)O [[^nat/177Lu]Lu-DOTA-CCK-58, metal not drawn] ({DOTA-d(γGlu)}-GGGW[NMeNle]D[1Nal]-NH2) | -2.66 ± 0.06 | ‒2.7 to ‒2.1 | – |
| CCCC[C@@H](C(=O)N[C@@H](CC(=O)O)C(=O)N[C@@H](Cc1cccc2ccccc12)C(N)=O)N(C)C(=O)[C@H](Cc1c[nH]c2ccccc12)NC(=O)CNC(=O)[C@H](Cc1ccc(O)cc1)NC(=O)[C@H](C)NC(=O)CNC(=O)CN1CCN(CC(=O)O)CCN(CC(=O)O)CCN(CC(=O)O)CC1 [[^nat/177Lu]Lu-DOTA-CCK-59, metal not drawn] ({DOTA}-GAYGW[NMeNle]D[1Nal]-NH2) | -1.26 ± 0.08 | − 1.9 to − 1.2 | – |
| CCCC[C@@H](C(=O)N[C@@H](CC(=O)O)C(=O)N[C@@H](Cc1cccc2ccccc12)C(N)=O)N(C)C(=O)[C@H](Cc1c[nH]c2ccccc12)NC(=O)CNC(=O)[C@H](Cc1ccc(O)cc1)NC(=O)CNC(=O)CC[C@@H](NC(=O)CN1CCN(CC(=O)O)CCN(CC(=O)O)CCN(CC(=O)O)CC1)C(=O)O [[^nat/177Lu]Lu-DOTA-CCK-60, metal not drawn] ({DOTA-d(γGlu)}-GYGW[NMeNle]D[1Nal]-NH2) | -2.63 ± 0.05 | ‒2.7 to ‒2.1 | – |
| CCCC[C@@H](C(=O)N[C@@H](CC(=O)O)C(=O)N[C@@H](Cc1cccc2ccccc12)C(N)=O)N(C)C(=O)[C@H](Cc1c[nH]c2ccccc12)NC(=O)CNC(=O)CNC(=O)[C@H](C)NC(=O)CC[C@@H](NC(=O)CN1CCN(CC(=O)O)CCN(CC(=O)O)CCN(CC(=O)O)CC1)C(=O)O [[^nat/177Lu]Lu-DOTA-CCK-61, metal not drawn] ({DOTA-d(γGlu)}-AGGW[NMeNle]D[1Nal]-NH2) | -2.56 ± 0.09 | ‒2.7 to ‒2.1 | – |
| CCCC[C@@H](C(=O)N[C@@H](CC(=O)O)C(=O)N[C@@H](Cc1cccc2ccccc12)C(N)=O)N(C)C(=O)[C@H](Cc1c[nH]c2ccccc12)NC(=O)CNC(=O)CN1CCN(CC(=O)O)CCN(CC(=O)O)CCN(CC(=O)O)CC1 [[^nat/177Lu]Lu-DOTA-CCK-62, DOTA-Gly-Trp-(N-Me)Nle-Asp-1-Nal-NH2, metal not drawn] ({DOTA}-GW[NMeNle]D[1Nal]-NH2) | -1.34 ± 0.08 | − 1.9 to − 1.2 | – |
| CCCC[C@@H](C(=O)N[C@@H](CC(=O)O)C(=O)N[C@@H](Cc1cccc2ccccc12)C(N)=O)N(C)C(=O)[C@H](Cc1c[nH]c2ccccc12)NC(=O)CCOCCOCCOCCOCCOCCNC(=O)CN1CCN(CC(=O)O)CCN(CC(=O)O)CCN(CC(=O)O)CC1 [[^nat/177Lu]Lu-DOTA-CCK-63, metal not drawn] ({DOTA-PEG5}-W[NMeNle]D[1Nal]-NH2) | -2.13 ± 0.05 | – | IC50 (CCK-2R; [3]): 8.8 ± 1.3 nM |
| CCCC[C@@H](C(=O)N[C@@H](CC(=O)O)C(=O)N[C@@H](Cc1cccc2ccccc12)C(N)=O)N(C)C(=O)[C@H](Cc1c[nH]c2ccccc12)NC(=O)CCOCCOCCOCCOCCNC(=O)CN1CCN(CC(=O)O)CCN(CC(=O)O)CCN(CC(=O)O)CC1 [[^nat/177Lu]Lu-DOTA-CCK-64, metal not drawn] ({DOTA-PEG4}-W[NMeNle]D[1Nal]-NH2) | -2.21 ± 0.07 | – | IC50 (CCK-2R; [2]): 7.64 ± 0.86 nM; IC50 (CCK-2R; [3]): 7.6 ± 0.9 nM |
| CCCC[C@@H](C(=O)N[C@@H](CC(=O)O)C(=O)N[C@@H](Cc1cccc2ccccc12)C(N)=O)N(C)C(=O)[C@H](Cc1c[nH]c2ccccc12)NC(=O)CNC(=O)[C@H](Cc1ccc(O)cc1)NC(=O)[C@H](C)NC(=O)CC[C@@H](NC(=O)CN1CCN(CC(=O)O)CCN(CC(=O)O)CCN(CC(=O)O)CC1)C(=O)O [[^nat/177Lu]Lu-DOTA-γ-MGS5, DOTA-D-γ-Glu-Ala-Tyr-Gly-Trp-(N-Me)Nle-Asp-1-Nal-NH2, metal not drawn, reference compound] ({DOTA-d(γGlu)}-AYGW[NMeNle]D[1Nal]-NH2) | -2.24 ± 0.04 | − 2.24 ± 0.04 | – |
| CCCC[C@@H](C(=O)N[C@@H](CC(=O)O)C(=O)N[C@@H](Cc1cccc2ccccc12)C(N)=O)N(C)C(=O)[C@H](Cc1c[nH]c2ccccc12)NC(=O)CNC(=O)[C@H](Cc1ccc(O)cc1)NC(=O)[C@H](C)NC(=O)[C@@H](CCC(=O)O)NC(=O)CN1CCN(CC(=O)O)CCN(CC(=O)O)CCN(CC(=O)O)CC1 [[^natLu]Lu-DOTA-MGS5, DOTA-D-Glu-Ala-Tyr-Gly-Trp-(N-Me)Nle-Asp-1-Nal-NH2, metal not drawn, reference compound] | – | − 2.21 ± 0.08 | IC50 (CCK-2R; [3]): 5.2 ± 0.8 nM |
